Reference: patent publication US20160100586A1, “MICROBIAL AGRICULTURE” (DSM IP ASSETS B.V., priority 2013, published 2016)

Test system: Colletotrichum gloeosporioides (CBS272.51)
Experiment: Agar plug bio-assay on YME agar, fungal colony radius towards Streptomyces or natamycin plug
Type: cell-based
Method: Three fungal plant pathogens were tested against the selected S. natalensis strains: Fusarium oxysporum f.sp. lycopersici (CBS414.90), Colletotrichum gloeosporioides (CBS272.51) and Alternaria alternata (CBS103.33). Fusarium oxysporum f.sp. lycopersici is a soil borne fungus causing yield loss in e.g. tomato crops (Fusarium Wilt). Colletotrichum gloeosporioides causes e.g. anthracnose, a plant disease recognizable by dark brown lesions on leaves and fruits. Alternaria alternata is a worldwide occurring saprophyte that can cause phytopathogenic reactions in economically important host plants. The selected S. natalensis strains were tested against these fungal plant pathogens as described below. Frozen vials (glycerol stocks) or freeze dried tubes from the selected S. natalensis strains were transferred to 100 ml baffled Erlenmeyer flasks containing 20 ml of Yeast Malt Extract broth (YME). Freeze dried tubes were resuspended in physiological saline and stored 1 hour at room temperature before they were transferred to the medium. The Erlenmeyer flasks were incubated in an incubator shaker for 3 days at 28° C. and 180 rpm. For each strain, 200 μl of liquid media was transferred to YME agar plates (90 mm petridishes containing 20 ml of media) and dispersed with the use of a sterile spreader onto the surface of the media). Subsequently, the agar plates were incubated for 4 days at 28° C. to enhance full colony coverage of the plate surface. The selected fungi were plated directly from a glycerol stock (200 μl) to YME agar and subsequently incubated for 4 days at 28° C. The bio-assay was done as follows. Overgrown Streptomyces and fungi plates made as described above were used to produce agar plugs. The plugs were made by cutting out the agar by using a sterile cork-borer (11 mm diameter) and subsequently removing it by a pre-sterilized spatula. Freshly produced non-inoculated YME agar plates were marked with a line on the back of the petridish. This line with a fixed length of 4 cm was placed in the middle of the petridish. Subsequently, a Streptomyces inoculated agar plug was transferred to the fresh YME agar plate at the left end of the line. The above-described “plug transfer” step was repeated for the respective fungi. The respective fungi plugs were placed at the right end of the line on the same YME agar plate. Each Streptomyces strain was challenged in triplicate against each fungus. For each tested fungus, a control sample was taken (in triplicate) by using a non-inoculated agar plug that was placed on the left side of the petridish. Next, the plates were placed with the plugs on top in an incubator. Subsequently, the plates were stored at 28° C. for 7 days. After 7 days the radius of the fungal colony was measured in the direction of the opposite agar plug (Streptomyces sample). This step was repeated for the control sample. The inhibition zone (in percentage) was calculated by using the following formula: 100%*(r0−r1)/r0 wherein r0 is the radius (in mm, corrected for the plug radius) of the fungal colony from the control sample and wherein r1 is the radius (in mm, corrected for the plug radius) of the fungal colony from the Streptomyces inhibited sample. Frozen vials (glycerol stocks) from the selected S. natalensis strains were transferred to 100 ml baffled Erlenmeyer flasks containing 20 ml of Yeast Malt Extract broth (YME). The Erlenmeyer flasks were incubated in an incubator shaker for 3 days at 28° C. and 180 rpm. For each strain, 200 μl of liquid media was transferred to YME agar plates and incubated for 4 days at 28° C. to enhance full colony coverage of the plate surface. Botrytis cinerea was plated directly from glycerol stock (100 μl) to YME agar and subsequently incubated for 9 days at 28° C. All other selected fungi were plated directly from a glycerol stock (200 μl) to YME agar and subsequently incubated for 4 days at 28° C. […]

SMILES: C[C@@H]1C/C=C/C=C/C=C/C=C/[C@H](O[C@@H]2O[C@H](C)[C@@H](O)[C@H](N)[C@@H]2O)C[C@@H]2O[C@](O)(C[C@@H](O)C[C@H]3O[C@@H]3/C=C/C(=O)O1)C[C@H](O)[C@H]2C(=O)O [Natamycin, natamycin]
- inhibition at 10 ppm (Colletotrichum gloeosporioides, CBS272, 168 h, Example 7, agar plug with 10 ppm natamycin, 5% w/w methanol, 7 days at 28° C., read-out: Average inhibition zone (in %)): 4%
- inhibition at 25 ppm (Colletotrichum gloeosporioides, CBS272, 168 h, Example 7, agar plug with 25 ppm natamycin, 5% w/w methanol, 7 days at 28° C., read-out: Average inhibition zone (in %)): 7%
- inhibition at 50 ppm (Colletotrichum gloeosporioides, CBS272, 168 h, Example 7, agar plug with 50 ppm natamycin, 5% w/w methanol, 7 days at 28° C., read-out: Average inhibition zone (in %)): 15%
- inhibition at 75 ppm (Colletotrichum gloeosporioides, CBS272, 168 h, Example 7, agar plug with 75 ppm natamycin, 5% w/w methanol, 7 days at 28° C., read-out: Average inhibition zone (in %)): 18%
- inhibition at 100 ppm (Colletotrichum gloeosporioides, CBS272, 168 h, Example 7, agar plug with 100 ppm natamycin, 5% w/w methanol, 7 days at 28° C., read-out: Average inhibition zone (in %)): 21%
- inhibition at 175 ppm (Colletotrichum gloeosporioides, CBS272, 168 h, Example 7, agar plug with 175 ppm natamycin, 5% w/w methanol, 7 days at 28° C., read-out: Average inhibition zone (in %)): 25%
- inhibition at 250 ppm (Colletotrichum gloeosporioides, CBS272, 168 h, Example 7, agar plug with 250 ppm natamycin, 5% w/w methanol, 7 days at 28° C., read-out: Average inhibition zone (in %)): 28%
- inhibition at 375 ppm (Colletotrichum gloeosporioides, CBS272, 168 h, Example 7, agar plug with 375 ppm natamycin, 5% w/w methanol, 7 days at 28° C., read-out: Average inhibition zone (in %)): 35%
- inhibition at 500 ppm (Colletotrichum gloeosporioides, CBS272, 168 h, Example 7, agar plug with 500 ppm natamycin, 5% w/w methanol, 7 days at 28° C., read-out: Average inhibition zone (in %)): 41%
- natamycin concentration in agar plug giving similar inhibition zone as the S. natalensis ATCC-27448 agar plug (Example 7, 7 days at 28° C.): approximately 375 ppm
- Fungal radius (in mm) (Example 7, agar plug with 10 ppm natamycin, 5% w/w methanol, 7 days at 28° C.): 44.3 mm
- Fungal radius (in mm) (Example 7, agar plug with 25 ppm natamycin, 5% w/w methanol, 7 days at 28° C.): 43.2 mm
- Fungal radius (in mm) (Example 7, agar plug with 50 ppm natamycin, 5% w/w methanol, 7 days at 28° C.): 39.3 mm
- Fungal radius (in mm) (Example 7, agar plug with 75 ppm natamycin, 5% w/w methanol, 7 days at 28° C.): 37.8 mm
- Fungal radius (in mm) (Example 7, agar plug with 100 ppm natamycin, 5% w/w methanol, 7 days at 28° C.): 36.7 mm
- Fungal radius (in mm) (Example 7, agar plug with 175 ppm natamycin, 5% w/w methanol, 7 days at 28° C.): 34.8 mm
- Fungal radius (in mm) (Example 7, agar plug with 250 ppm natamycin, 5% w/w methanol, 7 days at 28° C.): 33.2 mm
- Fungal radius (in mm) (Example 7, agar plug with 375 ppm natamycin, 5% w/w methanol, 7 days at 28° C.): 30.3 mm
- Fungal radius (in mm) (Example 7, agar plug with 500 ppm natamycin, 5% w/w methanol, 7 days at 28° C.): 27.3 mm
